Test results: PubChem BioAssay AID330 (DTP/NCI, 2004)
Several values for one entry are separate records, joined by “and”; a condition that tells them apart may be missing. Identical values can stand only once. Inconclusive results and toxic doses are left out. The calls were made as follows: active = survival T/C of 150% or more; inactive = T/C below 125% in these data. Square brackets hold non-standard residues; d marks the D form. Peptide text beside a SMILES is read from it. ξ: configuration not given here. Ac5c = NC1(C(=O)O)CCCC1; ξS = NC(CO)C(=O)O

Tested on: P388 leukemia ip, CD2F1 mice, survival T/C
Test: NCI In Vivo Anticancer Drug Screen. Data for tumor model P388 Leukemia (intraperitoneal) in CD2F1 (CDF1) mice
Settings: endpoint: median survival time, higher = longer survival
Outline: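 Mice carrying the transplanted tumor received test compound or vehicle. Survival was recorded in each group, and the value is the treated-group measurement divided by that of the vehicle-treated control group.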

[1] = dose: 50.0 mg/kg/injection, schedule: Q01DX005 (ip), vehicle: Klucel (hydroxypropylcellulose) (HPC)
[2] = dose: 100.0 mg/kg/injection, schedule: Q01DX005 (ip), vehicle: Klucel (hydroxypropylcellulose) (HPC)
[3] = dose: 200.0 mg/kg/injection, schedule: Q01DX005 (ip), vehicle: Klucel (hydroxypropylcellulose) (HPC)
[4] = dose: 60.0 mg/kg/injection, schedule: Q01DX005 (ip), vehicle: saline with Tween-80
[5] = dose: 120.0 mg/kg/injection, schedule: Q01DX005 (ip), vehicle: saline with Tween-80
[6] = dose: 240.0 mg/kg/injection, schedule: Q01DX005 (ip), vehicle: saline with Tween-80
[7] = dose: 25.0 mg/kg/injection, schedule: Q01DX009 (ip), vehicle: other
[8] = dose: 50.0 mg/kg/injection, schedule: Q01DX009 (ip), vehicle: other
[9] = dose: 100.0 mg/kg/injection, schedule: Q01DX009 (ip), vehicle: other
[10] = dose: 200.0 mg/kg/injection, schedule: Q01DX009 (ip), vehicle: other
[11] = dose: 50.0 mg/kg/injection, schedule: Q01DX005 (ip), vehicle: saline with Tween-80
[12] = dose: 100.0 mg/kg/injection, schedule: Q01DX005 (ip), vehicle: saline with Tween-80
[13] = dose: 200.0 mg/kg/injection, schedule: Q01DX005 (ip), vehicle: saline with Tween-80

Measured: T/C

COC(CNCc1ccccc1)OC
inactive: dose: 37.5 mg/kg/injection, schedule: Q04DX003 (ip), vehicle: saline 98 % of control | dose: 75.0 mg/kg/injection, schedule: Q04DX003 (ip), vehicle: saline 104 % of control | dose: 150.0 mg/kg/injection, schedule: Q04DX003 (ip), vehicle: saline 95 % of control | dose: 300.0 mg/kg/injection, schedule: Q04DX003 (ip), vehicle: saline 98 % of control

CC1(C)OC2OC(C3COC(=S)O3)C(O)C2O1 (stereo unspecified)
inactive: [1] 98 % of control | [2] 99 % of control | [3] 103 % of control

N#Cc1ccc(C(=O)C=C(C(F)(F)F)C(F)(F)F)cc1
inactive: dose: 3.13 mg/kg/injection, schedule: Q01DX009 (ip), vehicle: other 115 % of control | dose: 5.56 mg/kg/injection, schedule: Q01DX009 (ip), vehicle: other 120 % of control

O=c1c2c(oc3cc(OCC4CO4)ccc13)CCC2 (stereo unspecified)
inactive: [1] 93 % of control | [2] 88 % of control | [3] 95 % of control

C/C(CC(C)C)=N\NC(=O)CNC(=O)c1ccccc1
inactive: [4] 100 % of control | [5] 106 % of control | [6] 95 % of control

CC1CCC2N(C1)CC1C3(O)CC4(O)C(CCC5C(=O)C(O)CCC54C)C3(O)CC(O)C1(O)C2(C)O (stereo unspecified)
inactive: dose: 1.87 mg/kg/injection, schedule: Q01DX005 (ip), vehicle: Klucel (hydroxypropylcellulose) (HPC) 96 % of control | dose: 3.75 mg/kg/injection, schedule: Q01DX005 (ip), vehicle: Klucel (hydroxypropylcellulose) (HPC) 97 % of control | dose: 7.5 mg/kg/injection, schedule: Q01DX005 (ip), vehicle: Klucel (hydroxypropylcellulose) (HPC) 99 % of control and 97 % of control

CCC(=O)[C@]1(O)Cc2c(O)c3c(c(O)c2[C@@H](OC2CC(N)C(O)C(C)O2)C1)C(=O)c1c(OC)cccc1C3=O (stereo partly specified)
inactive: dose: 3.13 mg/kg/injection, schedule: Q04DX003 (ip), vehicle: water 102 % of control | dose: 6.25 mg/kg/injection, schedule: Q04DX003 (ip), vehicle: water 112 % of control | dose: 12.5 mg/kg/injection, schedule: Q04DX003 (ip), vehicle: water 119 % of control | dose: 25.0 mg/kg/injection, schedule: Q04DX003 (ip), vehicle: water 119 % of control | dose: 50.0 mg/kg/injection, schedule: Q04DX003 (ip), vehicle: water 110 % of control

CCC(CC)c1ccccn1
inactive: dose: 100.0 mg/kg/injection, schedule: Q01DX009 (ip), vehicle: saline 101 % of control | dose: 100.0 mg/kg/injection, schedule: Q04DX003 (ip), vehicle: saline 122 % of control | dose: 200.0 mg/kg/injection, schedule: Q01DX009 (ip), vehicle: saline 105 % of control

CCOC(=O)Nc1nc2c(SC#N)cc(C)cc2s1
inactive: dose: 12.5 mg/kg/injection, schedule: Q01DX009 (ip), vehicle: Klucel (hydroxypropylcellulose) (HPC) 103 % of control | dose: 25.0 mg/kg/injection, schedule: Q01DX009 (ip), vehicle: Klucel (hydroxypropylcellulose) (HPC) 96 % of control | dose: 50.0 mg/kg/injection, schedule: Q01DX009 (ip), vehicle: Klucel (hydroxypropylcellulose) (HPC) 88 % of control and 96 % of control

O=C(/C=C/c1ccccc1)c1ccccc(=O)c1O
inactive: [1] 105 % of control | [2] 113 % of control | [3] 104 % of control

N[C@@H](Cc1ccccc1)C(=O)NCCNC(=O)[C@@H](N)Cc1ccccc1
inactive: [4] 103 % of control | [5] 100 % of control | [6] 104 % of control

O=C(CCl)NC(Cc1cccc(F)c1)C(=O)O (stereo unspecified)
inactive: dose: 1.56 mg/kg/injection, schedule: Q01DX009 (ip), vehicle: saline 97 % of control | dose: 3.12 mg/kg/injection, schedule: Q01DX009 (ip), vehicle: saline 97 % of control | dose: 6.25 mg/kg/injection, schedule: Q01DX009 (ip), vehicle: saline 100 % of control and 96 % of control

CC(=O)c1c[nH]c(=O)c2cc3c(cc12)OCO3
inactive: [4] 95 % of control | [5] 91 % of control

Nc1cc2c(cc1C(=O)N1CCc3ccccc31)OCO2
inactive: [7] 106 % of control | [8] 100 % of control | [9] 97 % of control | [10] 90 % of control

COc1ccc2nc(Cl)c(CO)c(CO)c2c1
inactive: [1] 102 % of control | [2] 95 % of control | [3] 105 % of control

C=C(C)C1Oc2ccc(C(C)=O)cc2C1O (stereo unspecified)
inactive: dose: 8.8 mg/kg/injection, schedule: Q01DX009 (ip), vehicle: saline 103 % of control | dose: 17.5 mg/kg/injection, schedule: Q01DX009 (ip), vehicle: saline 89 % of control | dose: 35.0 mg/kg/injection, schedule: Q01DX009 (ip), vehicle: saline 100 % of control

O=C1Nc2c(ccc3c2NCCC3)C2CCCC12 (stereo unspecified)
inactive: dose: 100.0 mg/kg/injection, schedule: Q01DX001 (ip), vehicle: saline with Tween-80 94 % of control | dose: 200.0 mg/kg/injection, schedule: Q01DX001 (ip), vehicle: saline with Tween-80 94 % of control | dose: 400.0 mg/kg/injection, schedule: Q01DX001 (ip), vehicle: saline with Tween-80 90 % of control

O=c1[nH]c2cc([N+](=O)[O-])ccc2nc1/C=C(\O)c1ccccc1
inactive: dose: 60.0 mg/kg/injection, schedule: Q01DX005 (ip), vehicle: Klucel + Tween-80 100 % of control | dose: 120.0 mg/kg/injection, schedule: Q01DX005 (ip), vehicle: Klucel + Tween-80 92 % of control | dose: 240.0 mg/kg/injection, schedule: Q01DX005 (ip), vehicle: Klucel + Tween-80 92 % of control

COC(=O)N1c2ccccc2N(C(=O)OC)C1C#N
inactive: [4] 108 % of control | [5] 98 % of control | [6] 112 % of control

CCN(CC)CCNC(=O)c1ccc(NCN2C(=O)NC(c3ccccc3)(c3ccccc3)C2=O)cc1
inactive: [4] 104 % of control | [5] 110 % of control

O=C(O)C(Cc1ccccc1[N+](=O)[O-])N1C(=O)c2ccccc2C1=O (stereo unspecified)
inactive: dose: 50.0 mg/kg/injection, schedule: Q01DX009 (ip), vehicle: saline with Tween-80 112 % of control | dose: 100.0 mg/kg/injection, schedule: Q01DX009 (ip), vehicle: saline with Tween-80 92 % of control | dose: 200.0 mg/kg/injection, schedule: Q01DX009 (ip), vehicle: saline with Tween-80 94 % of control | dose: 400.0 mg/kg/injection, schedule: Q01DX009 (ip), vehicle: saline with Tween-80 100 % of control

c1ccc(CCNc2ncnc3nc[nH]c23)cc1
inactive: dose: 12.5 mg/kg/injection, schedule: Q01DX009 (ip), vehicle: other 102 % of control | [7] 101 % of control | [8] 100 % of control | [9] 101 % of control | [10] 102 % of control

Nc1nc(SCC(=O)O)[nH]c(=O)c1N
inactive: [11] 91 % of control | [12] 104 % of control | [13] 104 % of control

CCOC(=O)C(CO)NC(=O)C1(NC(C)=O)CCCC1 (stereo unspecified) (Ac-[Ac5c]-[ξS]-OEt)
inactive: dose: 50.0 mg/kg/injection, schedule: Q01DX005 (ip), vehicle: saline 100 % of control | dose: 100.0 mg/kg/injection, schedule: Q01DX005 (ip), vehicle: saline 100 % of control | dose: 200.0 mg/kg/injection, schedule: Q01DX005 (ip), vehicle: saline 100 % of control

C1=Cc2cc(CN3CCOCC3)ccc2Nc2ccc(CN3CCOCC3)cc21
inactive: dose: 60.0 mg/kg/injection, schedule: Q01DX005 (ip), vehicle: Klucel (hydroxypropylcellulose) (HPC) 96 % of control | dose: 120.0 mg/kg/injection, schedule: Q01DX005 (ip), vehicle: Klucel (hydroxypropylcellulose) (HPC) 94 % of control | dose: 240.0 mg/kg/injection, schedule: Q01DX005 (ip), vehicle: Klucel (hydroxypropylcellulose) (HPC) 99 % of control

CC(C)(C)c1cc(CCCCCCCC2(CCCCCCCc3cc(C(C)(C)C)cc(C(C)(C)C)c3)OC(COCCOCCOCCCC#N)C(COCCOCCOCCCC#N)O2)cc(C(C)(C)C)c1 (stereo unspecified)
inactive: dose: 25.0 mg/kg/injection, schedule: Q01DX005 (ip), vehicle: saline with Tween-80 97 % of control | [11] 95 % of control | [12] 113 % of control | [13] 100 % of control

O=[N+]([O-])c1cccc(S(=O)(=O)N/N=C\c2cc([N+](=O)[O-])ccc2O)c1
inactive: [11] 107 % of control | [12] 100 % of control | [13] 97 % of control
